≈ marks a conversion by molar mass, not a printed value. Read-outs that look alike come from different tables or passages of the source.
Assays:
[1] = test system: acid secretion induced by pentagastrin; test: Activity against gastric secretion stimulated with pentagastrin in the anaesthetized rat; format: in vivo
Procedure: The investigation of the activity against gastric secretion performed by the compounds of the invention by means of an antigastrin mechanism was carried out in vivo in anaesthetized rats with the use of male animals weighing about 200 g. Gastric secretion was stimulated with pentagastrin and the method of K. S. Lai [Gut 5, (1964), 327-341] was used, slightly modified.
After tracheotomy, the oesophagus and duodenum were cannulated. Perfusion was carried out with a tepid solution (37° C.) of 0.25 mM NaOH which was passed through the stomach by means of a peristaltic pump at a constant flow rate of 1 ml/minute. After stabilization for 20 minutes, the stimulant, dissolved in a physiological solution, was perfused for 120 minutes at a dose of 30 mcg/kg/h in a volume of 0.95 ml/hour. After perfusion for 60 minutes (the basal simulation), the product under test was administered intravenously (I.V.) as a bolus and the perfusion of the stimulant was continued for a further 60 minutes. The acid secretion was recorded continuously as a function of time.
The activity of the product was evaluated as the percentage reduction in the secreted acidity after the administration of the product compared with the basal acidity measured during the first 60 minutes of collection in the presence of pentagastrin alone.

[2] = biological target: T1, cholecystokinin receptors of the pancreatic cells of the rat (CCK-A) (Rattus norvegicus, UniProt P30551); test: Inhibition of the binding of [125-I]-[Bolton-Hunter]-CCK-8 to rat pancreatic cells (anti-CCK-A); conditions: rat pancreatic cells
T1 construct: The pancreatic cells of the rat were prepared as described by Makovec et al; from tissue; host or cells: rat pancreatic cells
T1 sequence (P30551 1-444): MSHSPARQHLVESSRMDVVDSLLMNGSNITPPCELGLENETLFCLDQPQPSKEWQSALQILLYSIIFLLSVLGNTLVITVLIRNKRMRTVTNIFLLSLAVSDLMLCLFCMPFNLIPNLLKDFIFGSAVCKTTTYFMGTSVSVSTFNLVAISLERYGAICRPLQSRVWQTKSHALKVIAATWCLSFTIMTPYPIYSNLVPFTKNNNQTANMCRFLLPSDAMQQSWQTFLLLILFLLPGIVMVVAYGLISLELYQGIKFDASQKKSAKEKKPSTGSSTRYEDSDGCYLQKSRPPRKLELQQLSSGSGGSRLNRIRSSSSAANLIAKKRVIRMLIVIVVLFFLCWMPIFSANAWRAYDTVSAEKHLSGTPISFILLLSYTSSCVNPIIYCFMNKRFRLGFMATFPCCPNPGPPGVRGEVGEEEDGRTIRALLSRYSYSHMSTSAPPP
Procedure: The pancreatic cells of the rat were prepared as described by Makovec et al. (reference cited) so as to produce about 5×10^6 cells/mi. The cells were then incubated together with the radioactive tracer and the compounds under test for 30 minutes at 37° C.
After the supernatant liquid had been discarded, the radioactivity associated with the pellet was determined with a gamma counter (80% efficiency).

[3] = biological target: T2, central CCK-B receptors (guinea pig cortical membrane) (Cavia porcellus, UniProt H0VZC5); test: Inhibition of binding of (3-H)[N-methyl-N-leucine]CCK-8 to guinea pig cortical membranes (anti-CCK-B)
T2 construct: Cerebral cortices of white male guinea pigs were therefore used; from tissue; host or cells: guinea pig cerebral cortex membranes
T2 sequence (H0VZC5 1-426): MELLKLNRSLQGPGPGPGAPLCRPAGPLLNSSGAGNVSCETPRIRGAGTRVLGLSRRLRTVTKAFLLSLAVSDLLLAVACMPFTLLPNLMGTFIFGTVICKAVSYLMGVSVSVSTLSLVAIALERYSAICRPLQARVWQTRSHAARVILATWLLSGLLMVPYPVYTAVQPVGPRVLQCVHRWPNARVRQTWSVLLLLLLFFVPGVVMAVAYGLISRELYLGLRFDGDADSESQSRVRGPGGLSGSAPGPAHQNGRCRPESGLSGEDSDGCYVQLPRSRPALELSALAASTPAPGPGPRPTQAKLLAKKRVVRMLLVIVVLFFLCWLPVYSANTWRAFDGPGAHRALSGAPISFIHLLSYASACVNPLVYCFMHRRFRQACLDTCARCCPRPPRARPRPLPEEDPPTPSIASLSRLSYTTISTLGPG
Procedure: Cerebral cortices of white male guinea pigs were therefore used, according to the method mentioned above, so as to obtain a membrane content/ml corresponding to about 300 mcg of proteins/mi. The membranes were incubated together with the radioactive tracer and the compounds under test for 150 minutes at 25° C. After the supernatant liquid had been discarded, the radioactivity associated with the pellet was determined with a liquid scintillator.

mouse = test: Anxiolytic activity in the mouse, Black and White Box test; format: in vivo; conditions: for TOTAL MOV.: five minutes
Procedure: In order to confirm the hypothesis that the potent activity of some of the compounds of the invention against central CCK-B may be correlated with a possible anxiolytic activity, this potential activity was evaluated in the mouse with the use of the "Black and White Box test". This experimental model, which was carried out according to Costall et al. [Pharm. Biochem. Behav. 32 (1989), 777-785] used a box with dimensions of 45×21×21 (h) cm. divided into two compartments which communicated with each other by means of a 13×5 cm hole. The smaller compartment (1/3 of the total area) had black walls, whereas the larger had transparent walls and was illuminated by a lamp which was placed 20 cm above the box and supplied light at 20 W. Under the floor was an activity meter which registered the movements performed by the animal in the individual compartments. The experiment was started by placing the animal in the centre of the illuminated box; as well at its movements, the time which the animal spent in the dark and in the light and the number of times it moved between the 2 compartments were recorded for five minutes. In general, a control animal tended preferably to stay in the dark compartment where it felt better protected from an unusual enviromental situation which put it in a state of anxiety. In this experimental model ( see the reference cited above), a compound having anxiolytic activity decreased the % of movements into the dark in comparison with the total movements, increased the movements between the two light-dark compartments, and increased the % of the total time time spent in the light. The results obtained are given in Table 5 below in which the activities obtained with the compound 1 (the rectus series ) and its enantiomer 2 (sinister) tested in comparison with diazepam and the CCK-B antagonist L365-260.

guinea-pig ureters = test: Antispastic activity in vitro: spontaneous motility of guinea-pig ureters; conditions: Cavia porcellus, five minutes contact, 37° C.
Source text: The isotonic contractions were detected by means of a force transducer and recorded. […] A given concentration of the product under test was then introduced into the bath and left in contact with the prepared specimen for five minutes, after which the ureter was washed until its own spontaneous activity was re-established.

CCK-B receptors = conditions: guinea-pig; cited from earlier work

In the case of `CN1CCN(C(=O)CC[C@@H](NC(=O)c2cc(Cl)cc(Cl)c2)C(=O)N2CCC3(CCCC3)CC2)CC1` [Compound 1], the ED50 ([1]; iv, anaesthetized rat, pentagastrin 30 mcg/kg/h, I.V. bolus, read-out: Antagonistic activity (ID50) towards acid secretion induced by pentagastrin) is reported as 9 mg/kg, the “activity times higher than that of its S enantiomer, compound 2” value ([1]; rat, pentagastrin-induced acid secretion) is reported as “about three” and the “times more active than CR 2194, calculated on a molar basis” value ([1]; rat, pentagastrin-induced acid secretion, molar basis) is reported as “about 1.5 times”. For the same compound, the “times more active than CR 2194” value ([1]; rat, pentagastrin-induced acid secretion, weight basis) was “about 1.2 times”, the “activity relative to its acidic parent compound CR 2194 (CCK-A binding)” value [2] was “about twice” and the IC50 ([3]; IC50, inhibition of binding of (3-H)[N-methyl-N-leucine]CCK-8 to the guinea pig cortical membrane, 150 minutes at 25° C.) was 700 nM. For the same compound, the “times less active than pentagastrin (CCK-B binding)” value ([3]; guinea-pig cortical membranes) was “about 200 times”, the “times more potent than the CCK-A antagonist R-lorglumide (CCK-B binding)” value ([3]; guinea-pig cortical membranes) was “about 10 times” and the “times more potent than the gastrin antagonist CR 2194 (CCK-B binding)” value ([3]; guinea-pig cortical membranes) was “about 3 times”. The “LIGHT TIME (%) TOTAL TIME” value (mouse; 0.01 mg/kg IP) was 32.3%, the “LIGHT TIME (%) TOTAL TIME: % EFF.VS CONTROL” value (from here on “LIGHT TIME … % EFF.VS CONTROL”) (mouse; 0.01 mg/kg IP) was 17% and the “LIGHT-DARK MOVEMENTS” value (mouse; 0.01 mg/kg IP) was 13.2. For the same compound, the “LIGHT-DARK MOVEMENTS: % EFF. VS CONTROL” value (mouse; 0.01 mg/kg IP) was 3%, the “MOV. DARK (%) TOTAL MOV.” value (mouse; 0.01 mg/kg IP) was 50% and the “MOV. DARK (%) TOTAL MOV.: % EFF. VS CONTROL” value (from here on “MOV. DARK … % EFF. VS CONTROL”) (mouse; 0.01 mg/kg IP) was 0%. For the same compound, the “TOTAL MOV.” value (mouse; 0.01 mg/kg IP) was 478, the “LIGHT TIME (%) TOTAL TIME” value (mouse; 0.1 mg/kg IP) was 35.4% and the “LIGHT TIME … % EFF.VS CONTROL” value (mouse; 0.1 mg/kg IP) was 28%. The “LIGHT-DARK MOVEMENTS” value (mouse; 0.1 mg/kg IP) was 15.0, the “LIGHT-DARK MOVEMENTS: % EFF. VS CONTROL” value (mouse; 0.1 mg/kg IP) was 17% and the “MOV. DARK (%) TOTAL MOV.” value (mouse; 0.1 mg/kg IP) was 47%. The “MOV. DARK … % EFF. VS CONTROL” value (mouse; 0.1 mg/kg IP) was -5%, the “TOTAL MOV.” value (mouse; 0.1 mg/kg IP) was 461 and the “LIGHT TIME (%) TOTAL TIME” value (mouse; 1 mg/kg IP) was 30.5%. For the same compound, the “LIGHT TIME … % EFF.VS CONTROL” value (mouse; 1 mg/kg IP) was 10%, the “LIGHT-DARK MOVEMENTS” value (mouse; 1 mg/kg IP) was 12.9 and the “LIGHT-DARK MOVEMENTS: % EFF. VS CONTROL” value (mouse; 1 mg/kg IP) was 0%. For the same compound, the “MOV. DARK (%) TOTAL MOV.” value (mouse; 1 mg/kg IP) was 45%, the “MOV. DARK … % EFF. VS CONTROL” value (mouse; 1 mg/kg IP) was -9% and the “TOTAL MOV.” value (mouse; 1 mg/kg IP) was 471. For the same compound, the “anxiolytic activity in the Black and White Box test (in words)” value (mouse; IP) was “active for all the parameters tested”, the “dose at which the compound is most active” value (mouse; bell-shaped curve) was 0.1 mg/kg (I.P.) and the IC50 (guinea-pig ureters; force of the contractions, read-out: IC50 (force), inhibition of the spontaneous motility of guinea-pig ureters in vitro) was 23 µg/mL (≈ 43.9 µM). The IC50 (guinea-pig ureters; frequency of the contractions, read-out: IC50 (frequency), inhibition of the spontaneous motility of guinea-pig ureters in vitro) was 29 µg/mL (≈ 55.4 µM).
For “non-sulphated [3-H][N-methyl-N-leucine]CCK-8”, the “affinity for the receptors of the cortex (CCK-B), times greater than for those of the pancreas (CCK-A)” value (CCK-B receptors) is given as “about 4000 times”.
